Experimental data reported in ChEMBL document CHEMBL1201862, “PubChem BioAssay data set” (2004).
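Tested at 5 concentrations; 48 h exposure; 96-well plates; endpoints linearly interpolated, else capped at highest concentration. The concentration for 50% growth inhibition is given as GI50.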 The source made the active and inactive calls. Rule as the data show it: active = GI50 up to about 1.1 µM and inactive = higher. *1 amine or outer side, *2 acyl side, *3 side chain or, on linkers, in order; H or OH if unused. Where a SMILES comes first, the peptide text is derived from it. Bridges are numbered along the chain shown (N, C = ends). [ ]: non-standard residue; d: D form. X36 = CC[C@H](C)[C@@H](N[*:1])[C@@H](O)CC(=O)O[C@H](C(=O)[C@H](C)C(=O)[*:2])C(C)C; NMeY = CN[C@@H](Cc1ccc(O)cc1)C(=O)O

Legend:
Test in all cases: growth of human tumour cells (NCI), 48 h
[1] = test system: A549
[2] = test system: HL-60
[3] = test system: HOP-62
[4] = test system: M14
[5] = test system: MDA-MB-231
[6] = test system: MDA-MB-435
[7] = test system: MOLT-4
[8] = test system: NCI/ADR-RES
[9] = test system: OVCAR-4
[10] = test system: SF-295
[11] = test system: SK-MEL-28
[12] = test system: SK-MEL-5
[13] = test system: SNB-75
[14] = test system: SW-620
[15] = test system: TK-10
[16] = test system: U-251
[17] = test system: UACC-257
[18] = test system: Malme-3M
[19] = test system: NCI-H522
[20] = test system: T47D

Measured: GI50

CC1CCC(C(=O)O)(C(Br)C(=O)O)CC1 (centres undefined)
inactive: [1] > 100 µM | [2] > 100 µM | [3] > 100 µM | [4] > 100 µM | [5] > 100 µM | [6] > 100 µM | [7] > 100 µM | [8] > 100 µM | [9] > 100 µM | [10] > 100 µM | [11] > 100 µM | [12] > 100 µM | [13] > 100 µM | [14] > 100 µM | [15] > 100 µM | [16] > 100 µM | [17] > 100 µM

Nc1nc(NNc2ccccc2F)cc(=O)[nH]1
inactive: [1] > 100 µM | [2] 56.8 µM | [3] > 100 µM | [4] > 100 µM | [5] > 100 µM | [6] > 100 µM | [7] > 100 µM | [18] > 100 µM | [8] > 100 µM | [9] > 100 µM | [10] > 100 µM | [11] > 100 µM | [12] > 100 µM | [14] > 100 µM | [15] > 100 µM | [16] 82.2 µM | [17] > 100 µM

CCCCCCCCCCCC(=O)Oc1c(Cl)cc(Cl)c(OC(=O)C(=O)Oc2c(Cl)cc(Cl)c(OC(=O)CCCCCCCCCCC)c2Cl)c1Cl
inactive: [1] > 100 µM | [3] > 100 µM | [6] > 100 µM | [7] 46.6 µM | [18] > 100 µM | [19] > 100 µM | [8] > 100 µM | [9] > 100 µM | [10] > 100 µM | [11] > 100 µM | [12] > 100 µM | [13] > 100 µM | [14] > 100 µM | [20] > 100 µM | [15] > 100 µM | [16] > 100 µM | [17] > 100 µM

CC[C@H](C)[C@H]1NC(=O)[C@@H](N)[C@@H](C)OC(=O)[C@H](Cc2ccc(OC)cc2)N(C)C(=O)[C@@H]2CCCN2C(=O)[C@H](CC(C)C)NC(=O)[C@@H](C)C(=O)[C@H](C(C)C)OC(=O)C[C@@H]1O (H-T[X36]LP[NMeY](Me); ester 1-C)
inactive: [1] 19.3 µM | [2] 11.7 µM | [3] 14.7 µM | [4] 4.84 µM | [6] 15.5 µM | [7] 6.85 µM | [18] 31.7 µM | [19] 10.5 µM | [8] > 100 µM | [9] 54.5 µM | [10] 29.4 µM | [11] 16.8 µM | [12] 12.9 µM | [13] 13.2 µM | [14] 19.5 µM | [15] 36.7 µM | [16] 29.5 µM | [17] 15.6 µM

CCc1c(O)nc(Nc2nc3ccccc3[nH]2)[nH]c1=O
inactive: [1] > 100 µM | [2] > 100 µM | [3] > 100 µM | [4] > 100 µM | [5] > 100 µM | [6] > 100 µM | [18] > 100 µM | [19] > 100 µM | [8] > 100 µM | [9] > 100 µM | [10] > 100 µM | [11] > 100 µM | [12] > 100 µM | [13] > 100 µM | [14] > 100 µM | [15] > 100 µM | [16] > 100 µM | [17] > 100 µM

O=C(COc1ccc(OCC(=O)N2C(=O)CN(c3ccc(Cl)cc3)C2=S)cc1)N1C(=O)CN(c2ccc(Cl)cc2)C1=S
inactive: [1] 21.5 µM | [4] 29 µM | [5] 19.8 µM | [6] 31.2 µM | [7] 33.7 µM | [18] 41.2 µM | [19] 26.5 µM | [8] 28.7 µM | [9] 25.9 µM | [10] 29 µM | [11] 36.3 µM | [12] 16.2 µM | [13] 40.6 µM | [14] 31.3 µM | [15] 24.4 µM | [16] 24 µM | [17] 27.8 µM

CCSc1[nH]c(Nc2nc(-c3ccccc3)n(-c3ccccc3)n2)c(C(N)=O)c1C(N)=O
inactive: [1] > 10 µM | [2] > 10 µM | [3] > 10 µM | [4] > 10 µM | [5] > 10 µM | [6] > 10 µM | [7] > 10 µM | [18] > 10 µM | [9] 5.28 µM | [10] 9.62 µM | [11] > 10 µM | [12] > 10 µM | [13] 9.44 µM | [14] > 10 µM | [20] > 10 µM | [15] > 10 µM | [17] > 10 µM

O=C1C[C@@H]2[C@@H](CCC23CC3)N1
inactive: [1] > 100 µM | [2] > 100 µM | [3] > 100 µM | [4] > 100 µM | [7] > 10 µM | [18] > 100 µM | [19] > 100 µM | [9] > 100 µM | [10] > 100 µM | [11] > 100 µM | [12] > 100 µM | [13] > 100 µM | [14] > 100 µM | [15] > 100 µM | [16] > 100 µM | [17] > 100 µM

COC(=O)[C@@]12C(=O)CCC(=O)C1C1C(=CC2C)O[C@@H]2OC3(CCCCC3)O[C@H]12 (some centres undefined)
inactive: [1] > 100 µM | [2] 25.8 µM | [3] > 100 µM | [4] > 100 µM | [7] 27.4 µM | [18] > 100 µM | [19] 18.6 µM | [9] 59.2 µM | [10] > 100 µM | [11] 97.3 µM | [12] > 100 µM | [13] > 85.1 µM | [14] 48.1 µM | [15] > 100 µM | [16] > 100 µM | [17] > 100 µM

C[N+](C)(C)C1(C(=O)[O-])CC1
inactive: [1] > 100 µM | [2] > 100 µM | [3] > 100 µM | [4] > 100 µM | [6] > 100 µM | [7] > 100 µM | [18] > 100 µM | [19] > 100 µM | [8] > 100 µM | [9] > 100 µM | [10] > 100 µM | [11] > 100 µM | [12] > 100 µM | [13] > 100 µM | [14] > 100 µM | [20] 72.1 µM | [15] > 100 µM | [16] > 100 µM | [17] > 100 µM

Cc1c(NC(=O)CCl)c(=O)oc2c(C)c3occc(=O)c3cc12
inactive: [1] 14.5 µM | [2] 5.28 µM | [3] 13.8 µM | [4] 13.1 µM | [7] 1.37 µM | [18] 21.1 µM | [8] 18.6 µM | [9] 11.5 µM | [10] 12.6 µM | [11] 12.8 µM | [12] 10.9 µM | [13] 2.39 µM | [14] 11.5 µM | [20] 14 µM | [15] 14.5 µM | [16] 14.4 µM | [17] 12.1 µM
